Data published in patent publication US12144872B1, “Modified nanodelivery system and method for enhanced in vivo medical and preclinical imaging” (Florida A&M University, priority 2012, dated 2024).

Test system: 4T1-luc tumor models
Assay: In vivo bioluminescence/fluorescence imaging and kinetics in luciferase-expressing tumor models
Details: mice, 150 mg/kg luciferin solution
Method: All the cell lines were modified for the luciferase reporter gene expression.
Trypsinization was stopped with medium containing 10% FBS. The cells were centrifuged, and the floating cells in the supernatant were discarded. The cell pellet was resuspended in medium containing 10% FBS and mixed thoroughly. Trypan blue staining was used to determine the number of viable cells. The resuspended cells were centrifuged, and cell dilutions of 2±10^6 cells/100 μl were prepared in growth medium. The 100 μl of cell suspension was injected subcutaneously into the right flank area of each mouse. The mice were randomized into control and treatment groups when xenografts were palpable with a tumor size of 50 mm^3.
The orthotopic tumor model was used to mimic the cancer in humans in athymic nu/nu mice (6-week old). […] Only cell suspensions of >90% viability, as determined by trypan blue exclusion, were used. […]
Nu/Nu mice were anesthetized and tumor cells (2 million per mouse) were injected via tail vein. Only cell suspensions of >90% viability, as determined by trypan blue exclusion, were used. […]
Imaging was performed with an IVIS Spectrum (16). Bioluminescent signals were quantified using Living Image® software (Caliper Life Sciences., Alameda, CA.).
Imaging was performed with an IVIS SpectrumCT (35). Bioluminescent signals were quantified using Living Image® software (Caliper Life Sciences., Alameda, CA.).

O=C(O)[C@H]1CSC(c2nc3ccc(O)cc3s2)=N1 [Free luciferin, luciferin]
time to clearance from circulation: ≤ 60 min
